doi:10.1101/2025.08.21.671483v1, “In vitro and in vivo activity profiles of broad-spectrum bacterial ATP synthase inhibitors” (biorxiv, 2025)

Tests used:
E. coli ATP synthase [1] = target: T1, E. coli ATP synthase (Escherichia coli, UniProt P68699); experiment: ATP synthesis kinetics, membrane vesicles, luciferase luminescence; assay type: biochemical; settings: ADP varied 0.05-1 mM, NADH-driven, pre-exposure 0-10 min
T1 construct: gene atpE

S. aureus ATP synthase = target: T2, S. aureus ATP synthase (Staphylococcus aureus, UniProt Q99SF0); experiment: ATP production by membrane vesicles, luciferase luminescence; assay type: biochemical; settings: […] NADH, 1 mM ADP, 10 mM potassium phosphate; 30 min preincubation, 60 min reaction
T2 construct: gene atpE
From the text: ATP production by membrane vesicles, luciferase luminescence on S. aureus ATP synthase

E. coli ATP synthase [2] = target: T1, E. coli ATP synthase; experiment: as above; assay type: biochemical; settings: […] NADH, 1 mM ADP, 10 mM potassium phosphate; 30 min preincubation, 60 min reaction
From the text: ATP production by membrane vesicles, luciferase luminescence on E. coli ATP synthase

E. coli ATCC 25922 = test system: T3, E. coli ATCC 25922; experiment: microbe, parasite or virus in culture; parameters: species or system bacteria; CLSI broth microdilution MIC, no visible growth; settings: Escherichia coli, ATCC25922, read-out: TM-184 MIC
T3 construct: ATCC 25922

E. coli MC4100 WT = test system: T4, E. coli MC4100 WT; experiment: microbe, parasite or virus in culture; parameters: species or system bacteria; CLSI broth microdilution MIC, no visible growth; settings: Escherichia coli, MC4100WT, read-out: TM-184 MIC
T4 construct: MC4100 (ATCC 35695)

[3] = test system: T5, S. aureus ATCC 29740 (Newbould); experiment: microbe, parasite or virus in culture; parameters: species or system bacteria; CLSI broth microdilution MIC, no visible growth; settings: Staphylococcus aureus, ATCC29740, read-out: TM-184 MIC
T5 construct: ATCC 29740 (Newbould)

E. coli MC4100 lptD4213 = test system: T6, E. coli MC4100 lptD4213; experiment: microbe, parasite or virus in culture; settings: Escherichia coli, MC4100LPTD4213, read-out: MIC
T6 construct: MC4100 lptD4213 membrane-compromised

E. coli MC4100 acrAB = test system: T7, E. coli MC4100 acrAB; experiment: microbe, parasite or virus in culture; settings: Escherichia coli, MC4100ACRAB, read-out: MIC
T7 construct: MC4100 acrAB efflux-deficient

S. aureus ATCC 29740hemB = experiment: microbe, parasite or virus in culture; settings: Staphylococcus aureus, ATCC29740HEMB, read-out: MIC
[4] = test system: T8, Escherichia coli 70122 CW-2007; experiment: microbe, parasite or virus in culture; parameters: species or system bacteria; CLSI broth microdilution MIC, no visible growth; settings: 70122CW2007, read-out: Table 3 TM-184 MIC
T8 construct: 70122 CW-2007

[5] = test system: T9, Escherichia coli 95882 CW-2011; experiment: microbe, parasite or virus in culture; parameters: species or system bacteria; CLSI broth microdilution MIC, no visible growth; settings: 95882CW2011, read-out: Table 3 TM-184 MIC
T9 construct: 95882 CW-2011

[6] = test system: T10, Escherichia coli ATCC 35218; experiment: microbe, parasite or virus in culture; parameters: species or system bacteria; CLSI broth microdilution MIC, no visible growth; settings: ATCC35218, read-out: Table 3 TM-184 MIC
T10 construct: ATCC 35218

[7] = test system: T11, Escherichia coli ATCC BAA2471; experiment: microbe, parasite or virus in culture; parameters: species or system bacteria; CLSI broth microdilution MIC, no visible growth; settings: ATCCBAA2471, read-out: Table 3 TM-184 MIC
T11 construct: ATCC BAA-2471

Escherichia coli ec302 = test system: T12, Escherichia coli ec302; experiment: microbe, parasite or virus in culture; parameters: species or system bacteria; CLSI broth microdilution MIC, no visible growth; settings: EC302, read-out: Table 3 TM-184 MIC
T12 construct: ec302

Escherichia coli ec305 = test system: T13, Escherichia coli ec305; experiment: microbe, parasite or virus in culture; parameters: species or system bacteria; CLSI broth microdilution MIC, no visible growth; settings: EC305, read-out: Table 3 TM-184 MIC
T13 construct: ec305

Escherichia coli ec308 = test system: T14, Escherichia coli ec308; experiment: microbe, parasite or virus in culture; parameters: species or system bacteria; CLSI broth microdilution MIC, no visible growth; settings: EC308, read-out: Table 3 TM-184 MIC
T14 construct: ec308

Escherichia coli ec309 = test system: T15, Escherichia coli ec309; experiment: microbe, parasite or virus in culture; parameters: species or system bacteria; CLSI broth microdilution MIC, no visible growth; settings: EC309, read-out: Table 3 TM-184 MIC
T15 construct: ec309

Escherichia coli ec310 = test system: T16, Escherichia coli ec310; experiment: microbe, parasite or virus in culture; parameters: species or system bacteria; CLSI broth microdilution MIC, no visible growth; settings: EC310, read-out: Table 3 TM-184 MIC
T16 construct: ec310

[8] = test system: T17, Citrobacterfreundii ATCC 8090; experiment: organism not typed; parameters: species or system bacteria; CLSI broth microdilution MIC, no visible growth; settings: read-out: Table 5 TM-184 MIC
T17 construct: ATCC 8090

[9] = test system: T18, Escherichia coli ATCC 25922; experiment: microbe, parasite or virus in culture; settings: ATCC25922, read-out: MIC (ug/ml) second column
T18 construct: ATCC 25922

SMILES: C[C@H]1CC[C@]2(NC1)O[C@H]1C[C@H]3[C@@H]4CC[C@H]5CC(NC[C@H](N)Cc6ccc(I)cc6)CC[C@]5(C)[C@H]4CC[C@]3(C)[C@H]1[C@@H]2C (mixture of isomers) [TM-184]
- Ki (E. coli ATP synthase [1]): 0.8 to 1.3 µM
- IC50 (S. aureus ATP synthase): 0.7 ± 0.33 µM
- IC50 (E. coli ATP synthase [2]): 1.57 ± 0.17 µM
- MIC (E. coli ATCC 25922): 4 µg/mL
- MIC (E. coli MC4100 WT): 8 µg/mL
- MIC [3]: 2 µg/mL
- MIC (E. coli MC4100 lptD4213): 2 µg/mL
- MIC (E. coli MC4100 acrAB): 4 µg/mL
- MIC (S. aureus ATCC 29740hemB): ≤ 0.25 µg/mL
- MIC [4]: 16 µg/mL
- MIC [5]: 16 µg/mL
- MIC [6]: 16 µg/mL
- MIC [7]: 16 µg/mL
- MIC (Escherichia coli ec302): 16 µg/mL
- MIC (Escherichia coli ec305): 2 µg/mL
- MIC (Escherichia coli ec308): 4 µg/mL
- MIC (Escherichia coli ec309): 16 µg/mL
- MIC (Escherichia coli ec310): 16 µg/mL
- MIC [8]: 8 µg/mL
- MIC [9]: 4 µg/mL

SMILES: O=[N+]([O-])c1ccc(Cl)c2nonc12 [4-chloro-7-nitrobenzofurazan, reference compound]
- Ki (E. coli ATP synthase [1]; positive control, covalent): 1.8 µM
